Drawing on publication PMC8396812, “Aphid Odorant-Binding Protein 9 Is Narrowly Tuned to Linear Alcohols and Aldehydes of Sixteen Carbon Atoms” (Insects, 2021), this text covers Kd and KD for 13 compounds.

Experiment [1] deals with T1, ApisOBP9 (Acyrthosiphon pisum, UniProt A0A8R1TD77).
T1 construct: pET30, E. coli, N-terminal His-tag removed with enterokinase
T1 sequence (A0A8R1TD77 25-165): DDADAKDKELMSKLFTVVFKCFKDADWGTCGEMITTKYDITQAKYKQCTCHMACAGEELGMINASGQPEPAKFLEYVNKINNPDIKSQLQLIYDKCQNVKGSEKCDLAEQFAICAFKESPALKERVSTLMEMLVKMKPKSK
Description: biochemical. Set-up: competitive displacement of 1-NPN fluorescence from recombinant OBP9, Kd calculated from IC50. The conditions noted are these: read-out: ApisOBP9-WT. The protocol:
Affinity constants were evaluated by the competitive fluorescent method, using a PerkinElmer FL 6500 spectrofluorometer in a right-angle configuration at room temperature and quartz cuvettes with a 1 cm path. The fluorescent probe N-phenyl-1-naphthylamine (1-NPN) was excited at 337 nm, and emission spectra were recorded between 380 and 450 nm. Binding of 1-NPN was evaluated by adding aliquots of a 1 mM methanol solution to reach final concentrations of 2–16 μM, to a 2 μM solution of the protein in 50 mM Tris-HCl buffer, pH 7.4. Intensity values were recorded at the peak maximum, around 412 nm. The dissociation constant of the complex protein/1-NPN was calculated using Prism software (https://www.graphpad.com/scientific-software/prism/, accessed on 10 February 2021). The affinities of other ligands were evaluated in competitive binding assays by adding aliquots of 1 mM methanol solutions of each ligand to final concentration values of 2 to 16 μM, to a mixture of the protein and 1-NPN, both at the concentration of 2 μM in 50 mM Tris-HCl buffer, pH 7.4. Dissociation constants of ligands were calculated from the corresponding [IC]50 values (the concentration of each ligand halving the initial value of fluorescence), using the equation:KD = [IC]50/1 + [1-NPN]/K1-NPN where [1-NPN] is the concentration of free 1-NPN, and K1-NPN the dissociation constant of the complex protein/1-NPN. All results of the binding experiments are reported in Figure 2 and in Supplementary Figures S1–S4, including those performed on a mutant (Lys37Leu), designed on the results obtained with the wild-type ApisOBP9. First, we measured the affinity of the protein to the fluorescent probe N-phenyl-1-naphthylamine (1-NPN), the most widely used with insect OBPs.

The target in experiment [2] is T1, ApisOBP9. Description: competitive displacement of 1-NPN fluorescence. As to conditions: 2 μM protein, 2 μM 1-NPN, 50 mM Tris-HCl pH 7.4, room temperature. Type of experiment: binding.

Structures are written as SMILES.

For the compound `CCCCCCCCCC(=O)O` [Decanoic acid], at ApisOBP9 [1], the Kd was 14.5 µM. In the case of `COc1cc(/C=C/C=O)ccc1O` [coniferyl aldehyde], on ApisOBP9 [2], the KD entry was “with only coniferyl aldehyde and safranal showing moderate affinities”. The Kd on ApisOBP9 [1] was 7.89 µM.

For `CCCCCCCCCCCCCCO` [1-Tetradecanol], at ApisOBP9 [1], the Kd is 3.41 µM.

Consider `CCCC/C=C\CCCCCCCCCCCC=O` [(Z)-13-Octadecenal], for which the Kd on ApisOBP9 [1] was 2.28 µM. As for `C=CC(=C)CC/C=C(\C)CCC=C(C)C` [(E)-β-farnesene], the KD result at ApisOBP9 [2] is listed as “in our hands, ApisOBP9 showed some affinity to EBF”. `CCCC/C=C\CCCCCCCCCCO` [Z11-1-hexadecenol]: the Kd at ApisOBP9 [1] is 1.37 µM. In the case of `CC1=C(C=O)C(C)(C)CC=C1` [safranal], on ApisOBP9 [2], the KD entry was “with only coniferyl aldehyde and safranal showing moderate affinities”. Also, on ApisOBP9 [1], the Kd was 11.4 µM. Turning to `CCCCCC/C=C\CCCCCCCC=O` [Z9-hexadecenal], on ApisOBP9 [1], the Kd is 1.44 µM. On the same count and under the same terms, under `CCCC/C=C\CCCCCCCC=O` [(Z)-9-Tetradecenal] stands 5.31 µM; under `CCCCCCCCCCCCO` [1-Dodecanol], 3.79 µM; under `CCCCCCCCCCCCCCCCO` [1-hexadecanol], 1.9 µM. Same read-out and setting: under `CCCC/C=C\CCCCCCOC(C)=O` [(Z)-7-Dodecenyl acetate] stands 1.38 µM; under `CCCC/C=C\CCCCCCCCCC=O` [Z11-hexadecenal], 1.14 µM.
